According to patent EP1220845B1, “ARYL-SULFONAMIDE SUBSTITUTED BENZIMIDAZOL DERIVATIVES AND USE OF SAID AS TRYPTASE INHIBITORS” (Boehringer Ingelheim Pharma GmbH & Co.KG, priority 1999, dated 2001):
Where a name gives a salt, the structure may show the parent alone.

Biological target: T1, rh beta Tryptase (Homo sapiens, UniProt Q15661)
T1 construct: purchased Promega
Test: Tryptase inhibition test (cleavage of chromogenic substrate, p-nitroaniline read at 405 nm)
Format: biochemical
Conditions: Tris HCl buffer 100 mM, calcium 5 mM, heparin, pH 7.4, 37°C; substrate N-p-Tosyl-Gly-Pro-Lys-para-nitroanilin 0.6 mM; 5 min preincubation, 5 min incubation; 0.91 U/ml enzyme
Procedure: Die erfindungsgemäßen Verbindungen zeichnen sich durch ihre Tryptase-inhibierende Wirksamkeit aus. Besagte Fähigkeit, die Tryptase zu inhibieren, wurde gemäß der nachfolgenden Testbeschreibung untersucht. Die Bestimmung wird in Tris HCI Puffer (100 mM), der zusätzlich Calcium (5 mM) und Heparin ([…]) enthält, bei pH 7.4 durchgeführt. Als Standard wird rh beta Tryptase eingesetzt, die beispielsweise von Promega käuflich zu erwerben ist. Als Substrat dient N-p-Tosyl-[…]-nitroanilin in einer Konzentration von 0.6 mM. Das Substrat wird durch Tryptase verdaut wobei p-Nitroanilin entsteht, das bei 405 nm gemessen werden kann. Üblicherweise wird eine Inkubationszeit von 5 Minuten und eine Inkubationstemperatur von 37°C gewählt. Als Enzymaktivität werden 0.91 U/ml eingesetzt. Die Bestimmung erfolgt in einem Autoanalyser (Cobas Bio) der Firma Hofmann LaRoche. Die potentiellen Hemmsubstanzen werden in Konzentrationen von 10 μM im Screening eingesetzt, wobei die Hemmung der Tryptase in Prozent angegeben wird. […] Nach 5-minütiger Vorinkubation der potentiellen Hemmsubstanzen, wird das Substrat zum […] Reaktion zugegeben, wobei die Bildung von p-Nitroanilin […]. […]

T1 sequence (Q15661 31-275): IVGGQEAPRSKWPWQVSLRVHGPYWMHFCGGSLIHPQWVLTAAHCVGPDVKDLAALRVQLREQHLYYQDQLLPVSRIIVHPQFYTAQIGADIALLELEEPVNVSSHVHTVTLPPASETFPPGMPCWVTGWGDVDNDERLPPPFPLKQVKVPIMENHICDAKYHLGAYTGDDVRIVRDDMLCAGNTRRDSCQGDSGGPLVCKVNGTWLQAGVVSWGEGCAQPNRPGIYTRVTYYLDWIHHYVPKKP

## CCN(CC)CCN(c1ccc2c(c1)nc(CCc1ccc(C(=N)N)cc1)n2C)S(=O)(=O)c1cccc2c(N(C)C)cccc12 [Beispiel 2, N-{2-[2-(4-Amidinophenyl)ethyl]-1-methyl-benzimidazol-5-yl}-N-diethylaminoethyl-(dansylamid)-dihydrochlorid]
  IC50: 11 nM
